According to article PMC7601674, “CoQ10 Deficient Endothelial Cell Culture Model for the Investigation of CoQ10 Blood–Brain Barrier Transport” (Journal of Clinical Medicine, 2020):

What was measured:
[1] = design: method as in PMID 17482886, PMID 22272129; conditions: after oral-supplementation in vivo; cited from earlier work
[2] = design: method as in PMID 16647250; conditions: high-dose (1000–5000 mg/kg) CoQ10; cited from earlier work
[3] = test system: ataxic symptoms; design: method as in PMID 22490322; conditions: cerebellar ataxic phenotype, following CoQ10 supplementation; cited from earlier work
[4] = test system: CoQ10 deficient human neuroblastoma cells; design: method as in PMID 24534273; conditions: treatment with 10 μmol/L CoQ10; cited from earlier work
[5] = test system: primary porcine brain endothelial cells (PBEC) monolayer; assay: CoQ10 transport assay across PBEC monolayer on Transwell filters; conditions: for Transport to the Basal side, percentage of Apical compartment: A to B, no serum pre-incubation
Experimental: Primary porcine brain endothelial cells (PBEC) were isolated and cultured as previously published. Briefly, cells were seeded at 10 × 10^4 cells/cm^2 on collagen and fibronectin-coated polycarbonate Transwell filters (Corning 0.4 µm pore size) in 12-well plates, and grown in low glucose DMEM (Sigma D5546) supplemented with bovine plasma-derived serum (10% v/v; BPDS, First Link UK), glutamine (2 mM), heparin (125 µg/mL), penicillin (100 U/mL) and streptomycin (100 µg/mL), at 37 °C in a 5% CO2 incubator. PBECs were grown in non-contact co-culture above primary rat astrocytes until confluent, then supplemented with hydrocortisone (550 nM), 8-4-chlorophenylthio-cAMP (250 µM) and RO-20-1724 (17.5 µM) in serum-free medium for a further 3 days. Before assays of CoQ10 transport, PBECs were separated from astrocytes by moving transwell filters to fresh culture plates.
(§1) Unless stated, CoQ10 was pre-treated by incubation in serum at a concentration of 20 µM for 45 min at 37 °C, and added to assay buffer on either the Apical (blood facing) or Basal (brain facing) side of the cells on Transwell filters. The final concentration of CoQ10 used in the assays was 10 µM in serum (50% v/v). Cells were then incubated for 60 min on an orbital shaker (100 rpm) at 37 °C. Samples of the Apical (A) and Basal (B) media were then taken for analysis to calculate A to B (blood-to-brain) or B to A (brain-to-blood) Papp in cm/s, as previously described by Patabendige et al.. CoQ10 concentrations were determined using the LC-MS/MS method described above (Section 2.2).
(§2) Inhibitors of transport were added to both Apical and Basal sides of the cells for 2 h prior to assay. Antioxidants were pre-incubated with CoQ10 in serum for 45 min prior to assay, and were present in the assay buffer. Compounds used were; SR-B1 inhibitor, blocker of lipid transport-1 (BLT-1; 10 µmol/L)

[6] = design: method as in PMID 9671775; conditions: diet supplemented with 200 mg/kg CoQ10 for 2 months; cited from earlier work
[7] = test system: bEnd.3 cells (mouse BBB cell line) monolayer; assay: CoQ10 transport assay across bEnd.3 monolayer on Transwell filters (control or pABA treated)
Experimental: as §1, §2
As previously described, para-aminobenzoic acid (pABA) was used as a pharmacological reagent to induce CoQ10 deficiency. The mechanism of action is via competitive inhibition of polyprenyl-4-hydroxybenzoate transferase (Coq2p), a key enzyme in the later stages of the CoQ10 biosynthetic pathway. Following the method of Duberley et al., 1 mmol/L pABA was added to culture medium for 5 days prior to assay.

[8] = CoQ10 partition in serum lipoprotein fractions; assay type: in vitro ADME, bovine; conditions: for CoQ10 content in HDL fraction / CoQ10 content in LDL fraction: n = 3; for CoQ10 content in vLDL fraction: calculated by subtraction
Experimental: Bovine plasma-derived serum (BPDS) was either untreated or supplemented with 10 µM CoQ10 for 45 min at 37 °C. Serum lipoproteins were then fractionated according to the method of Ononogbu et al. and the CoQ10 content measured in each fraction by LC-MS/MS. This lipoprotein fraction method is comprised of two parallel precipitation-centrifugation extractions, yielding a separation of the major classes of lipoprotein as supernatants containing “LDL + HDL” and “HDL”. The concentration of CoQ10 in the “VLDL” fraction was calculated by subtraction.

[9] = serum supplemented with 10 μmol/L CoQ10
[10] = serum supplemented with 10 μmol/L CoQ10, 45 min

Transport to the Basal side, percentage of Apical compartment ([5]; 30 min): undetectable
Transport to the Basal side, percentage of Apical compartment ([5]; after 2 h, n = 4): 0.51 ± 0.15%
Increase of transport across PBEC monolayer after pre-incubation in serum ([5]; CoQ10 pre-incubated 45 min in serum (BPDS) vs no serum): 4 fold
Effect of serum pre-incubation on Papp (A to B and B to A) ([5]; PBEC, 60 min): enhanced transport in both directions
Transport across monolayer after pABA treatment vs control ([5]; PBEC, pABA 1 mM 5 days): increased transport
Effect of serum pre-incubation on Papp (A to B and B to A) ([7]; bEnd.3, 60 min): enhanced transport in both directions
NET CoQ10 Apical to Basal Papp (A to B Papp - B to A Papp) ([7]; bEnd.3, Control): -0.02 ×10⁻⁶ cm/s
NET CoQ10 Apical to Basal Papp (A to B Papp - B to A Papp) ([7]; bEnd.3, LDLR inhib (RAP 0.5 µM)): 0.1 ×10⁻⁶ cm/s
NET CoQ10 Apical to Basal Papp (A to B Papp - B to A Papp) ([7]; bEnd.3, P-gp inhib (verapamil 0.1 mM)): -0.04 ×10⁻⁶ cm/s
NET CoQ10 Apical to Basal Papp (A to B Papp - B to A Papp) ([7]; bEnd.3, RAGE inhib (FPS-ZM1 1 µM)): -0.08 ×10⁻⁶ cm/s
NET CoQ10 Apical to Basal Papp (A to B Papp - B to A Papp) ([7]; bEnd.3, SR-B1 inhib (BLT-1 10 µM)): -0.13 ×10⁻⁶ cm/s
Transport across monolayer after pABA treatment vs control ([7]; bEnd.3, pABA 1 mM 5 days): increased transport
Supplemented CoQ10 recovered in the vLDL/LDL fractions ([8]; serum supplemented with 10 µM CoQ10): More than 92%
% of CoQ10 in HDL fraction [8, 9]: 7.2%
% of CoQ10 in LDL fraction [8, 9]: 63.8%
% of CoQ10 in vLDL fraction [8, 9]: 29%
CoQ10 content in HDL fraction [8, 10]: 762 ± 8.1 nmol/L
CoQ10 content in LDL fraction [8, 10]: 6718 ± 103.5 nmol/L
CoQ10 content in vLDL fraction [8, 9]: 3060 ± 138.8 nmol/L
Serum endogenous CoQ10 content ([8]; untreated cell culture serum): 147.5 ± 0.5 nM
% of CoQ10 in HDL fraction ([8]; untreated serum): 21.7%
% of CoQ10 in LDL fraction ([8]; untreated serum): 77.7%
% of CoQ10 in vLDL fraction ([8]; untreated serum): 0.6%
CoQ10 content in HDL fraction ([8]; untreated serum): 32.7 ± 1.8 nmol/L
CoQ10 content in LDL fraction ([8]; untreated serum): 117.0 ± 1.2 nmol/L
CoQ10 content in vLDL fraction ([8]; untreated serum): 0.9 ± 0.01 nmol/L
Compound: COC1=C(OC)C(=O)C(C/C=C(\C)CC/C=C(\C)CC/C=C(\C)CC/C=C(\C)CC/C=C(\C)CC/C=C(\C)CC/C=C(\C)CC/C=C(\C)CC/C=C(\C)CCC=C(C)C)=C(C)C1=O [CoQ10, Coenzyme Q10]
Highest achievable CoQ10 plasma concentration [1]: 10.7 µmol/L
Brain levels of CoQ10 and CoQ9 [2]: significantly increased in brain levels of CoQ10 and CoQ9
Patients with improvement/stabilisation in ataxic symptoms [3]: 49%
MRC function [4]: restores MRC function
Increase in cerebral cortex CoQ10 and CoQ9 [6]: 30%
